In US9260418B2, “Pyranyl aryl methyl benzoquinolinone M1 receptor positive allosteric modulators” (Merck Sharp & Dohme Corp., priority 2009, dated 2016):

Target: T1, acetylcholine muscarinic M1 receptor (Homo sapiens, UniProt P11229)
T1 construct: expressed in transfected cells; host or cells: CHOnfat cells (CHO), under Geneticin selection; b382 calls them CHOK1/hM1
T1 sequence (P11229 1-460): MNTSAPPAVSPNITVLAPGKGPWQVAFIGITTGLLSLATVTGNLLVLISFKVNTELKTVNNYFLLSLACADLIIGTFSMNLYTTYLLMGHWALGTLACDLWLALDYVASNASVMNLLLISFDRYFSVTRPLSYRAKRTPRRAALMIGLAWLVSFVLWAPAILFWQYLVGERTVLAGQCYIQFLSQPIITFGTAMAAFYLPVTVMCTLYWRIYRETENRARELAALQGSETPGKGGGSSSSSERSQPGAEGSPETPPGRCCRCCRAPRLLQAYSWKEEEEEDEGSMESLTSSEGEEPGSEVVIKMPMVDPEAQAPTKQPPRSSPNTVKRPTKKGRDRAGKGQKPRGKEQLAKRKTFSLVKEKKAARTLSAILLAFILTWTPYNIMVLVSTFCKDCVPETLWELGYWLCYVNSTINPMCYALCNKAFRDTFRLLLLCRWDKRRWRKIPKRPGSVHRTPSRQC
Assay: muscarinic FLIPR intracellular calcium assay, potentiation of EC20 acetylcholine in CHOnfat/hM1 cells
Assay type: cell-based
Details: inflection point calculated from FLIPR values, 4 min preincubation, then EC20 acetylcholine (3 nM final), read-out: IP Value
Experimental: The assay studies the effect of one or several concentrations of test compounds on basal or acetylcholine-stimulated Ca^2+ levels using FLIPR.
Compounds are prepared and subjected to a preincubation period of 4 min. Thereafter, a single EC20 concentration of acetylcholine is added to each well (3 nM final). The intracellular Ca^2+ level of each sample is measured and compared to an acetylcholine control to determine any modulatory activity.
Cells: CHOnfat/hM1, hM2, hM3 or hM4 cells are plated 24 hr before the assay at a density of 18,000 cells/well (100 μL) in a 384 well plate. CHOnfat/hM1 and CHOnfat/hM3 Growth Medium: 90% DMEM (Hi Glucose); 10% HI FBS; 2 mM L-glutamine; 0.1 mM NEAA; Pen-Strep; and 1 mg/ml Geneticin, are added. For M2Gqi5CHOnfat and M4Gqi5CHOnfat cells, an additional 600 ug/ml hygromycin is added.
Equipment: 384 well plate, 120 μL addition plate; 96-well Whatman 2 ml Uniplate Incubator, 37° C., 5% CO2; Skatron EMBLA-384 Plate Washer; Multimek Pipetting System; Genesis Freedom 200 System; Mosquito System; Temo Nanolitre Pipetting System; and FLIPR^384 Fluorometric Imaging Plate Reader System are used.
Buffers. Assay Buffer: Hanks Balanced Salt Solution, with 20 mM Hepes, 2.5 mM Probenecid (Sigma P-8761) first dissolved in 1 N NaOH, 1% Bovine Serum Albumin (Sigma A-9647). Dye Loading Buffer: Assay Buffer plus 1% Fetal Bovine Serum and Fluo-4AM/Pluronic Acid Mixture. 2 mM Fluo-4AM ester stock in DMSO (Molecular Probes F-14202) Concentration of 2 μM in buffer for a final concentration of 1 μM in Assay. 20% Pluronic Acid Solution stock, with concentration of 0.04% in Buffer, 0.02% in Assay.
65 μL of 2 mM Fluo-4AM are mixed with 130 μL of 20% Pluronic Acid. The resulting solution and 650 μL FBS is added to the assay buffer for a total volume of 65 mL. Positive Controls: 4-Br-A23187: 10 mM in DMSO; final concentration 10 μM. Acetylcholine: 10 mM in water, working stock at both 20 μM and 30 μM in assay buffer, final concentration of 10 μM. This is used to check the maximum stimulation of the CHOK1/hM1 cells. 20 μM (2×) acetylcholine is added in the preincubation part of the assay, and the 30 μM (3×) stock is added in the second part. (EC20)Acetylcholine: 10 mM in water, working stock of 9 nM (3×), and final concentration in assay is 3 nM. This is used after the preincubation with test compounds. Addition of the EC20 Acetylcholine to each well with a test compound will ascertain any modulator activity. 24 wells contain 3 nM Acetylcholine alone as a control.
Screening Plate: Compounds are titrated in 96-well plates (columns 2-11), 100% DMSO, started at a concentration of 15 mM (150× stock concentration), and 3-fold serial dilutions using Genesis Freedom200 System. Four 96-well plates are combined into a 384-well plate using Mosquito Nanolitre Pipetting System by transferring 1 μl of serial diluted compounds to each well, and 1 mM acetylcholine (100× stock concentration) were added as a control. Using Temo, 49 μl assay buffer is added to each well of the 384-well plate right before assay.
In a 96-well Whatman 2 ml Uniplate, 9 nM Acetylcholine (3×) is pipetted into wells corresponding to the screening compounds, and into control wells. The 30 μM acetylcholine control (3×) is added into control wells, and the 3× agonist plate is transferred into a 384 well plate.
Cells are washed three times with 100 μL of buffer, leaving 30 μL of buffer in each well. Using Multimek, 30 μL of Dye Loading Buffer is added into each well and incubated at 37° C., 5% CO2 for up to one hr.
After 60 min, the cells are washed three times with 100 μL of buffer, leaving 30 μL of buffer in each well. The cell plate, screening plate, and agonist addition plates are placed on the platform in the FLIPR and the door closed. A signal test to check background fluorescence and basal fluorescence signal is performed. Laser intensity is adjusted if necessary. […]

SMILES | EC50
O=c1c2cc(Cc3ccnc(Cl)c3)c3ccccc3c2ncn1[C@H]1CCOC[C@@H]1O [Example 15, 6-[(2-Chloropyridin-4-yl)methyl]-3-[(3R,4S)-3-hydroxytetrahydro-2H-pyran-4-yl]benzo[h]quinazolin-4(3H)-one] | 12 nM
O=c1c2cc(Cc3ccc(OC(F)F)nc3)c3ccccc3c2ncn1[C@H]1CCOC[C@@H]1O [Example 29, 6-{[6-(Difluoromethoxy)pyridine-3-yl]methyl}-3-[(3R,4S)-3-hydroxytetrahydro-2H-pyran-4-yl]benzo[h]quinazolin-4(3H)-one] | 39 nM
CN(C)C(=O)c1ccc(Cc2cc3c(=O)n([C@H]4CCOC[C@@H]4O)cnc3c3ccccc23)cn1 [Example 19, 5-({3-[(3R,4S)-3-Hydroxytetrahydro-2H-pyran-4-yl]-4-oxo-3,4-dihydrobenzo[h]quinazolin-6-yl}methyl)-N,N-dimethylpyridine-2-carboxamide] | 318 nM
Cc1ccc(Cc2cc3c(=O)n([C@H]4CCOC[C@@H]4O)cnc3c3ccccc23)cn1 [Example 3, 3-[(3R,4S)-3-Hydroxytetrahydro-2H-pyran-4-yl]-6-[(6-methylpyridin-3-yl)methyl]benzo[h]quinazolin-4(3H)-one] | 15 nM
O=c1c2cc(Cc3ccc(CO)nc3)c3ccccc3c2ncn1[C@H]1CCOC[C@@H]1O [Example 21, 6-{[6-(Hydroxymethyl)pyridine-3-yl]methyl}-[(3R,4S)-3-hydroxytetrahydro-2H-pyran-4-yl]benzo[h]quinazolin-4(3H)-one] | 28 nM
Cn1cc(Br)c2c(Cc3cc4c(=O)n([C@H]5CCOC[C@@H]5O)cnc4c4ccccc34)ccnc21 [Example 31, 6-[(3-Bromo-1-methyl-1H-pyrrolo[2,3-b]pyridine-4-yl)methyl]-3-[(3R,4S)-3-hydroxytetrahydro-2H-pyran-4-yl]benzo[h]quinazolin-4(3H)-one] | 275 nM
CSc1ccc(Cc2cc3c(=O)n([C@H]4CCOC[C@@H]4O)cnc3c3ccccc23)cn1 [Example 2, 3-[(3R,4S)-3-Hydroxytetrahydro-2H-pyran-4-yl]-6-{[(6-methylthio)pyridin-3-yl)methyl]benzo[h]quinazolin-4(3H)-one] | 14 nM
CC(=O)c1ccc(Cc2cc3c(=O)n([C@H]4CCOC[C@@H]4O)cnc3c3ccccc23)cn1 [Example 10, 6-[(6-Acetylpyridin-3-yl)methyl]-3-[(3R,4S)-3-hydroxytetrahydro-2H-pyran-4-yl]benzo[h]quinazolin-4(3H)-one] | 30 nM
O=c1c2cc(Cc3ccc(O)nc3)c3ccccc3c2ncn1[C@H]1CCOC[C@@H]1O [Example 28, 6-[(6-Hydroxypyridin-3-yl)methyl]-3-[(3R,4S)-3-hydroxytetrahydro-2H-pyran-4-yl]benzo[h]quinazolin-4(3H)-one] | 27 nM
COC(C)(C)c1ccc(Cc2cc3c(=O)n([C@H]4CCOC[C@@H]4O)cnc3c3ccccc23)cn1 [Example 20, 3-[(3R,4S)-3-Hydroxytetrahydro-2H-pyran-4-yl]-6-{[6-(1-methoxy-1-methylethyl)pyridine-3-yl]methyl}benzo[h]quinazolin-4(3H)-one] | 45 nM
CCOc1ccc(Cc2cc3c(=O)n([C@H]4CCOC[C@@H]4O)cnc3c3ccccc23)cn1 [Example 27, 6-[(6-Ethyoxypyridin-3-yl)methyl]-3-[(3R,4S)-3-hydroxytetrahydro-2H-pyran-4-yl]benzo[h]quinazolin-4(3H)-one] | 27 nM
Cn1cc(-c2ccc(Cc3cc4c(=O)n([C@H]5CCOC[C@@H]5O)cnc4c4ccccc34)cn2)cn1 [Example 4, 3-[(3R,4S)-3-Hydroxytetrahydro-2H-pyran-4-yl]-6-{[6-(1-methyl-1H-pyrazol-4-yl)pyridine-3-yl]methyl}benzo[h]quinazolin-4(3H)-one] | 2.5 nM
COc1ccc(Cc2cc3c(=O)n([C@H]4CCOC[C@@H]4O)cnc3c3ccccc23)cn1 [Example 7, 3-[(3R,4S)-3-Hydroxytetrahydro-2H-pyran-4-yl]-6-[(6-methoxypyridin-3-yl)methyl]benzo[h]quinazolin-4(3H)-one] | 16.8 nM
O=c1c2cc(Cc3ccc(-c4cscn4)nc3)c3ccccc3c2ncn1[C@H]1CCOC[C@@H]1O [Example 13, 3-[(3R,4S)-3-Hydroxytetrahydro-2H-pyran-4-yl]-6-{[6-(1,3-thiazol-4-yl)pyridine-3-yl]methyl}benzo[h]quinazolin-4(3H)-one] | 5.8 nM
O=c1c2cc(Cc3ccc(Cl)[n+]([O-])c3)c3ccccc3c2ncn1[C@H]1CCOC[C@@H]1O [Example 14, 6-[(6-Chloro-1-oxidopyridin-3-yl)methyl]-3-[(3R,4S)-3-hydroxytetrahydro-2H-pyran-4-yl]benzo[h]quinazolin-4(3H)-one] | 59 nM
O=c1c2cc(Cc3ccc(C(F)F)nc3)c3ccccc3c2ncn1[C@H]1CCOC[C@@H]1O [Example 23, 6-{[6-(Difluoromethyl)pyridine-3-yl]methyl}-3-[(3R,4S)-3-hydroxytetrahydro-2H-pyran-4-yl]benzo[h]quinazolin-4(3H)-one] | 14 nM
Cc1ccc(-c2ccc(Cc3cc4c(=O)n([C@H]5COCC[C@@H]5O)cnc4c4ccccc34)cn2)cn1 [Example 34, 3-[(3S,4S)-4-Hydroxytetrahydro-2H-pyran-3-yl]-6-[(6′-methyl-2,3-bipyridin-5-yl)methyl]benzo[h]quinazolin-4(3H)-one] | 7.1 nM
COc1cc(Cc2cc3c(=O)n([C@H]4CCOC[C@@H]4O)cnc3c3ccccc23)ccn1 [Example 26, 3-[(3R,4S)-3-Hydroxytetrahydro-2H-pyran-4-yl]-6-[(2-methoxypyridin-4-yl)methyl]benzo[h]quinazolin-4(3H)-one] | 34 nM
CCc1ccc(Cc2cc3c(=O)n([C@H]4CCOC[C@@H]4O)cnc3c3ccccc23)cn1 [Example 9, 6-[(6-Ethylpyridin-3-yl)methyl]-3-[(3R,4S)-3-hydroxytetrahydro-2H-pyran-4-yl]benzo[h]quinazolin-4(3H)-one] | 16 nM
O=c1c2cc(Cc3ccc(Cl)nc3)c3ccccc3c2ncn1[C@H]1CCSC[C@@H]1O [Example 33, 6-[(6-Chloropyridin-3-yl)methyl]-3-[(3R,4S)-3-hydroxytetrahydro-2H-thiopyran-4-yl]benzo[h]quinazolin-4(3H)-one] | 10 nM
O=c1c2cc(Cc3cc[n+]([O-])c(Cl)c3)c3ccccc3c2ncn1[C@H]1CCOC[C@@H]1O [Example 24, 6-[(2-Chloro-1-oxidopyridin-4-yl)methyl]-3-[(3R,4S)-3-hydroxytetrahydro-2H-pyran-4-yl]benzo[h]quinazolin-4(3H)-one] | 58 nM
